# US7718768B2, “Biologically active peptide [sequence]” (CMS Peptides Patent Holding Company Limited, priority 2001, dated 2010)
# Marks after values point to notes of the source that are not given here. No end group written: not given here.
# Tested on: T lymphocyte
# Experiment: T lymphocyte transformation test (ConA, MTT) on spleen cells of treated mice
# Type: in vivo, BALB/c mice
# Set-up: key: OD of assay wells divided by OD of control wells
# Conditions: peptide 50 μg/kg/day i.p. 15 days; IFN-γ and IL-2 groups 3×10^5 IU/kg/day; X ± SD
# Description: (§1) The above substances were all dissolved in 0.5 ml saline and injected intraperitoneal (i.p.) for 15 continuous days, once per day.
# (§2) Ten mice per group. The day after the last test substance administration, the mice were sacrificed by cervical dislocation. The spleen was isolated aseptically and manually dispersed in cold D-Hank's solution using an injection needle. The dispersed cell suspension was further sieved through a 100 gauge 150 μm diameter stainless steel sieve. After centrifugation at 200 g for 10 minutes, the supernatant was discarded. The cell pellet was re-suspended in 10 volume of Tris-NH4Cl buffer and then kept standing still for 10 minutes at room temperature. The suspended cells were collected by centrifugation at 150 g for 10 minutes. The cells were washed 2-4 times with cold D-Hank's solution by re-suspending and collecting by centrifugation with condition as described above. The washed cells were then diluted to the desired cell densities by RPMI-1640 culture medium, containing 10% fetal bovine serum.
# Spleen cells of density 1×10^6/ml were placed onto a 96 wells cell culture plate, 100 μl/well, three parallel wells each of the assay sample and control sample per mouse. To the assay wells, 100 μl/well ConA of 100 μg/ml in RPMI-1640 was added, and 100 μl/well plain RPMI-1640 was used for the controls. The cells were incubated for 66 hrs at 37° C., 5% CO2. The cells were then pelleted by centrifugation at 150 g for 10 minutes.
# 50 μl/well MTT of 1 mg/ml in RPMI-1640 was added to the cell pellet and the cells re-suspended by shaking for 2 minutes. The incubation was continued for 4 hours. The supernatant was discarded after centrifugation at 150 g for 10 minutes. 120 μl 40 mM HCl-2-propanol was added to the cell pellet and shaken for 3 minutes. to obtain OD570nm of each well referenced at 630 nm. An ELISA reader was used
# Each mouse formed three assay wells and three control wells. The Stimulation Index (SI) of each mouse was obtained by first deriving the average OD of the three parallel wells, then dividing the value of the assay wells by the control wells.
row,Substance,stimulation index (T lymphocyte transformation)
1,VVYPWTQRF [CMS002],2.6 ± 0.3*^@^

# Same assay, conditions: peptide 500 μg/kg/day i.p. 15 days; IFN-γ and IL-2 groups 3×10^5 IU/kg/day; X ± SD
row,Substance,stimulation index (T lymphocyte transformation)
1,Phe Asn Glu Glu (FNEE; listed as Sus scrofa) [CMS029],1.7 ± 0.3
2,VVYPWTQRF [CMS002],1.8 ± 0.3

# Tested on: NK cell
# Experiment: NK cell cytotoxicity activity test (YAC-1 target cells, MTT) on spleen cells of treated mice
# Type: in vivo, BALB/c mice
# Conditions: peptide 0.5 μg/kg/day i.p. 15 days; IFN-γ and IL-2 groups 3×10^5 IU/kg/day; X ± SD
# Description: as §1, §2
# Mice spleen cells were prepared to 4×10^6/ml as described in section 1.1 above. Target cells YAC-1 were brought to log phase and adjusted to 1×10^5/ml. Using a 96 wells cell culture plate, 100 μl mouse spleen cells and 100 μl culture medium were added to the control well containing only the spleen cells; 100 μl target cells and 100 μl culture medium were added to the control well containing only target cells; 100 μl mouse spleen cells and 100 μl target cells were added to the NK activity assay well. Three parallel sets of the above were prepared per mouse.
# Samples were centrifuged at 150 g for 10 minutes to collect the cells. The supernatant was discarded and 50 μl/well MTT of 1 mg/ml was added. The reaction mixture was then shaken for 2 minutes, and incubated at 37° C., 5% CO2 for 4 hours. The supernatant was discarded after centrifugation at 150 g for 10 minutes. 120 μl 40 mM HCl-2-propanol was added and shaken for 3 minutes. An ELISA reader was used to obtain OD570nm of each well referenced at 630 nm.
row,Substance,NK cell cytotoxic activity (NK cell activity index)
1,VVYPWTQRF [CMS002],76 ± 9 %

# Same assay, conditions: peptide 50 μg/kg/day i.p. 15 days; IFN-γ and IL-2 groups 3×10^5 IU/kg/day; X ± SD
row,Substance,NK cell cytotoxic activity (NK cell activity index)
1,TTYNSIM [CMS026],76 ± 9 %

# Same assay, conditions: peptide 500 μg/kg/day i.p. 15 days; IFN-γ and IL-2 groups 3×10^5 IU/kg/day; X ± SD
row,Substance,NK cell cytotoxic activity (NK cell activity index)
1,Phe Glu Glu Asn Met (FEENM; listed as Sus scrofa) [CMS027],88 ± 8 %
2,Phe Glu Ser Phe (FESF; listed as Sus scrofa) [CMS033],89 ± 8 %
3,Phe Asn Glu Glu (FNEE; listed as Sus scrofa) [CMS029],87 ± 4 %
4,TTYNSIM [CMS026],89 ± 7 %
5,Ala Ala Phe [CMS023],79 ± 12 %

# Tested on: anti-SRBC antibody
# Experiment: Sheep Red Blood Cell (SRBC) hemolysis test, anti-SRBC antibody formation
# Type: in vivo, BALB/c mice
# Conditions: peptide 0.5 μg/kg/day i.p. 15 days, SRBC on day 12; IFN-γ and IL-2 groups 3×10^5 IU/kg/day; X ± SD
# Description: Sheep red blood cells (SRBC) were prepared by collecting blood from cervical vein and put into a sterile flask with glass beads. The flask was shaken for 3 minutes and the blood then mixed with Alsever solution (glucose 2.05 g, NaCl 0.4 g, […] 0.8 g, adjust to 100 ml with distilled water) and stored at 4° C. Immediately before use, samples were centrifuged at 130 g, 5 minutes to collect the SRBC. The cells were washed two times by re-suspension and centrifugation in normal saline. Then the cell pellet was collected by centrifugation at 180 g for 10 minutes and re-suspended in saline to make the final working SRBC suspension, 2% (v/v).
# Complement was prepared by adding 10 volumes of fresh Cavy serum into one volume centrifuge packed SRBC, and then gently shaking for 30 minutes at 4° C. The SRBC was removed by centrifugation at 200 g for 10 minutes. 10 volumes of normal saline were added to obtain the working complement solution.
# The test substances were administered as described in section 1.1, plus intraperitoneal injection 0.2 ml SRBC per mouse on day 12. On the day after the last test substance administration (day 16), blood was collected from the eye canthus and left at room temperature for one hour for serum exudation. After centrifugation at 200 g for 10 minutes, the serum was diluted by 500 times with normal saline.
# To 1 ml diluted mouse serum of each mouse, 0.5 ml SRBC suspension was added. Ice cold. Then 1 ml working complement solution was added and incubated at 37° C. water bath for 10 minutes. Reactions were terminated by ice cold. Samples were then centrifuged at 200 g for 10 minutes to obtain the supernatant.
# To 1 ml of this supernatant, 3 ml Drabkin solution was added and left at room temperature for 10 minutes. OD540nm was obtained.
# Reference OD540nm was obtained by mixing 0.25 ml SRBC suspension with Drabkin solution to 4 ml and placed at room temperature for 10 minutes before OD540nm was taken. Sample serum index=(OD540nm of test sample[…]reference OD540nm)×500 3. The Effect of Peptides on the Phagocytosis Function of Mononuclear Phagocyte and the Weight of Immune Organ^[8,9].
row,Substance,anti-SRBC antibody formation (sample serum index)
1,Phe Glu Glu Asn Met (FEENM; listed as Sus scrofa) [CMS027],99 ± 14*^@^ Unit
2,Phe Glu Ser Phe (FESF; listed as Sus scrofa) [CMS033],78 ± 12*^@ Unit
3,Phe Asn Glu Glu (FNEE; listed as Sus scrofa) [CMS029],18 ± 7* Unit
4,VVYPWTQRF [CMS002],4 ± 1* Unit
5,TTYNSIM [CMS026],19 ± 6* Unit
6,Ala Ala Phe [CMS023],108 ± 21*^@^ Unit

# Same assay, conditions: peptide 5 μg/kg/day i.p. 15 days, SRBC on day 12; IFN-γ and IL-2 groups 3×10^5 IU/kg/day; X ± SD
row,Substance,anti-SRBC antibody formation (sample serum index)
1,Phe Glu Glu Asn Met (FEENM; listed as Sus scrofa) [CMS027],117 ± 45*^@^ Unit
2,Phe Glu Ser Phe (FESF; listed as Sus scrofa) [CMS033],128 ± 39*^@^ Unit
3,Phe Asn Glu Glu (FNEE; listed as Sus scrofa) [CMS029],147 ± 23*^@^ Unit
4,TTYNSIM [CMS026],191 ± 17*^@^ Unit
5,Ala Ala Phe [CMS023],166 ± 27*^@^ Unit

# Same assay, conditions: peptide 50 μg/kg/day i.p. 15 days, SRBC on day 12; IFN-γ and IL-2 groups 3×10^5 IU/kg/day; X ± SD
row,Substance,anti-SRBC antibody formation (sample serum index)
1,Phe Glu Glu Asn Met (FEENM; listed as Sus scrofa) [CMS027],93 ± 11*^@^ Unit
2,Phe Glu Ser Phe (FESF; listed as Sus scrofa) [CMS033],112 ± 15*^@^ Unit
3,Phe Asn Glu Glu (FNEE; listed as Sus scrofa) [CMS029],143 ± 13*^@^ Unit
4,TTYNSIM [CMS026],98 ± 9*^@^ Unit
5,Ala Ala Phe [CMS023],84 ± 11*^@^ Unit

# Same assay, conditions: peptide 500 μg/kg/day i.p. 15 days, SRBC on day 12; IFN-γ and IL-2 groups 3×10^5 IU/kg/day; X ± SD
row,Substance,anti-SRBC antibody formation (sample serum index)
1,Phe Glu Ser Phe (FESF; listed as Sus scrofa) [CMS033],143 ± 27*^@^ Unit
2,Phe Asn Glu Glu (FNEE; listed as Sus scrofa) [CMS029],115 ± 22*^@^ Unit
3,VVYPWTQRF [CMS002],87 ± 18*^@ Unit
4,Ala Ala Phe [CMS023],110 ± 45*^@^ Unit

# Tested on: mononuclear phagocyte
# Experiment: carbon particle clearance test, phagocytotic activity of mononuclear phagocyte
# Type: in vivo, BALB/c mice
# Set-up: key: α = (cube root of K)×(body weight ÷ liver+spleen weight)
# Conditions: peptide 0.5 μg/kg/day i.p. 15 days; IFN-γ and IL-2 groups 3×10^5 IU/kg/day; X ± SD
# Description: On the next day after the last test substance administration (day 16), the mice were injected with […] body weight India ink (5 times dilution with normal saline) from the tail vein.
# One minute and five minutes after Indian ink injection, 20 μl blood was obtained from the eye can thus with a heparinized tubing. The blood was mixed with 2 ml 0.1% w/v Na2CO3 and then OD680nm obtained. The outline clear index K was calculated by the following formula: K=(lgA1−lgA2)÷(t2−t1) Key: A1: OD680nm at first minute A2: OD680nm at fifth minute t2: 5 minutes […]
# (§3) One day after the last test substance administration (day 16), the liver, spleen, and thymus gland were separated and blotted dry with filter paper and weighed. The phagocytosis index α was calculated as below: α=(^3√K)(W÷WLS) key: W: body weight WLS: weight of liver plus spleen Thymus gland index(%)=(thymus weight/body weight)×100% Spleen index(%)=(spleen weight/body weight)×100%
row,Substance,phagocytotic index
1,Phe Glu Glu Asn Met (FEENM; listed as Sus scrofa) [CMS027],6.4 ± 0.6

# Tested on: not listed separately
# Experiment: immunity organ weight test (thymus gland index, spleen index)
# Type: in vivo, BALB/c mice
# Conditions: peptide 0.5 μg/kg/day i.p. 15 days; IFN-γ and IL-2 groups 3×10^5 IU/kg/day; X ± SD
# Description: as §1, §3
row,Substance,weight of thymus gland (thymus gland index)
1,VVYPWTQRF [CMS002],0.26 ± 0.06*^@^ %
2,TTYNSIM [CMS026],0.21 ± 0.05 %

# Same assay, conditions: peptide 5 μg/kg/day i.p. 15 days; IFN-γ and IL-2 groups 3×10^5 IU/kg/day; X ± SD
row,Substance,weight of thymus gland (thymus gland index)
1,Phe Glu Ser Phe (FESF; listed as Sus scrofa) [CMS033],0.20 ± 0.02 %
2,Phe Asn Glu Glu (FNEE; listed as Sus scrofa) [CMS029],0.21 ± 0.03 %
3,VVYPWTQRF [CMS002],0.24 ± 0.05*^ %
4,TTYNSIM [CMS026],0.31 ± 0.05*^@^ %
5,Ala Ala Phe [CMS023],0.23 ± 0.06 %

# Same assay, conditions: peptide 50 μg/kg/day i.p. 15 days; IFN-γ and IL-2 groups 3×10^5 IU/kg/day; X ± SD
Substance,weight of thymus gland (thymus gland index),weight of spleen (spleen index)
Phe Glu Glu Asn Met (FEENM; listed as Sus scrofa) [CMS027],0.21 ± 0.03*^@^ %,–
Phe Glu Ser Phe (FESF; listed as Sus scrofa) [CMS033],0.18 ± 0.03 %,–
Phe Asn Glu Glu (FNEE; listed as Sus scrofa) [CMS029],0.18 ± 0.05 %,0.42 ± 0.04 %
VVYPWTQRF [CMS002],0.21 ± 0.02*^@^ %,–
TTYNSIM [CMS026],0.27 ± 0.02*^@^ %,–
Ala Ala Phe [CMS023],0.20 ± 0.02*^@^ %,–

# Same assay, conditions: peptide 500 μg/kg/day i.p. 15 days; IFN-γ and IL-2 groups 3×10^5 IU/kg/day; X ± SD
row,Substance,weight of thymus gland (thymus gland index)
1,Phe Glu Glu Asn Met (FEENM; listed as Sus scrofa) [CMS027],0.20 ± 0.03*^ %
2,Phe Glu Ser Phe (FESF; listed as Sus scrofa) [CMS033],0.25 ± 0.04*^@^ %
3,Phe Asn Glu Glu (FNEE; listed as Sus scrofa) [CMS029],0.22 ± 0.04*^@^ %
4,TTYNSIM [CMS026],0.20 ± 0.03*^ %

# Same assay, conditions: peptide 500 μg/kg/day i.p. 15 days; X ± SD
row,Substance,weight of spleen (spleen index)
1,Phe Glu Glu Asn Met (FEENM; listed as Sus scrofa) [CMS027],0.37 ± 0.03 %
2,Ala Ala Phe [CMS023],0.36 ± 0.06 %
